Results as given in patent US9029396B2, “Substituted indole derivatives” (Novartis AG, priority 2011, dated 2015).
Converted amounts (≈) assume the structure as drawn.

Key:
[1] = Solubility in simulated gastric and intestinal fluids; type: physicochemical; conditions: Free Form
Excerpt: Solubility of compound Example No. 1 in simulated gastric and in simulated intestinal fluids at room temperature
Solubility of compound Example No. 3 (free form/acetate salt form) in simulated gastric fluids: […]

[2] = Dog pharmacokinetics after oral administration of compound of example No. 1; type: in vivo, Beagle dogs; conditions: dog, blood
Experimental: A single dose of the compound of example 1 (3.0 mg/kg) was administered p.o. to 3 male Beagle dogs. Compound 1 was dosed as an aqueous suspension of the crystalline monohydrate form in Methylcellulose (0.5%): Tween 80 (1%) (90:10). Blood was taken in regular intervals by venipuncture, and the samples were analyzed for a period of up to 24 hours. The compounds of the examples 1, 2, and 3 were quantitatively assessed over time, and the results are tabulated below:
Key pharmacokinetic parameters (mean values±standard deviations (n=3) for 1, 2 and 3 after oral dosing of example No. 1.

PKC-theta = biological target: T1, PKC-theta (Homo sapiens, UniProt Q04759); test: Protein kinase C theta assay (Caliper mobility shift); type: biochemical; conditions: full length human recombinant enzyme, 70 μM ATP; read-out: PKCθ (IC50 in nM)
T1 construct: Both enzymes were full length human recombinant protein expressed in insect cells; purchased Invitrogen AG, Basel, Switzerland; host or cells: insect cells
Experimental: (§1) The compounds of the invention were tested for their activity on different PKC isotypes according to the following method. All assays were performed in 384 well microtiter plates. Each assay plate contained 8-point serial dilutions for 40 test compounds, as well as two 16-point serial dilutions of staurosporine as reference compound, plus 16 high- and 16 low controls. Liquid handling and incubation steps were done on a automated workstation equipped with a Innovadyne Nanodrop Express.
(§2) The assay plates were prepared by addition of 50 nL per well of compound solution in 90% DMSO. The kinase reactions were started by stepwise addition of 4.5 μl per well of a 2× peptide/ATP-solution and 4.5 μl per well of a 2× enzyme solution. The final concentration of reagents during kinase reaction were: 50 mM HEPES, pH 7.5, 1 mM DTT, 0.02% Tween20, 0.02% BSA, 0.6% DMSO, 10 mM beta-glycerophosphate, and 10 μM sodium orthovanadate. The peptide substrate used in the PKC-alpha and PKC-theta assays was Dy495-X5-ME-Mpr-RFARKGSLRQKNV-COOH. […]
(§3) Plates with terminated kinase reactions were transferred to the Caliper LC3000 workstations for reading. Phosphorylated and unphosphorylated peptides were separated using the Caliper microfluidic mobility shift technology and Kinase activities were calculated from the amounts of formed phospho-peptide.

[3] = Dog pharmacokinetics after oral administration of compound of example No. 3 (mono acetate salt); type: in vivo, Beagle dogs; conditions: blood
Experimental: Compound of Example No. 3 was administered orally as the mono acetate salt in a hard gelatine capsule to 6 fasted male Beagle dogs. A nominal dose of 100 mg/dog was given, resulting in dose of 8.9-11.3 mg/kg (weight of the dogs ranging from 8.9-11.3 kg). Blood was taken by venipuncture, and sampling was performed up to 32 h. Bioanalytic determination was performed for 3 and is tabulated below:
Key pharmacokinetic parameters (mean values or range) for compound No. 3 after oral dosing as described above.

[4] = Stability in gastric and intestinal simulated fluids at 37° C.; type: physicochemical
Experimental: Stability Assessments Stability of Cpd. Example No. 1 in Gastric and Intestinal Simulated Fluids at 37° C.:
Stability of compound Example No. 3
(Free form/acetate salt form) in gastric and intestinal simulated fluids at 37° C.: […]

PKC-alpha = biological target: T2, PKC-alpha (Homo sapiens, UniProt P17252); test: Protein kinase C alpha assay (Caliper mobility shift); type: biochemical; conditions: full length human recombinant enzyme, 17 μM ATP; read-out: PKCα (IC50 in nM)
T2 construct: Both enzymes were full length human recombinant protein expressed in insect cells; purchased Invitrogen AG, Basel, Switzerland; host or cells: insect cells
Experimental: as §1, §2, §3

T1 sequence (Q04759 whole entry): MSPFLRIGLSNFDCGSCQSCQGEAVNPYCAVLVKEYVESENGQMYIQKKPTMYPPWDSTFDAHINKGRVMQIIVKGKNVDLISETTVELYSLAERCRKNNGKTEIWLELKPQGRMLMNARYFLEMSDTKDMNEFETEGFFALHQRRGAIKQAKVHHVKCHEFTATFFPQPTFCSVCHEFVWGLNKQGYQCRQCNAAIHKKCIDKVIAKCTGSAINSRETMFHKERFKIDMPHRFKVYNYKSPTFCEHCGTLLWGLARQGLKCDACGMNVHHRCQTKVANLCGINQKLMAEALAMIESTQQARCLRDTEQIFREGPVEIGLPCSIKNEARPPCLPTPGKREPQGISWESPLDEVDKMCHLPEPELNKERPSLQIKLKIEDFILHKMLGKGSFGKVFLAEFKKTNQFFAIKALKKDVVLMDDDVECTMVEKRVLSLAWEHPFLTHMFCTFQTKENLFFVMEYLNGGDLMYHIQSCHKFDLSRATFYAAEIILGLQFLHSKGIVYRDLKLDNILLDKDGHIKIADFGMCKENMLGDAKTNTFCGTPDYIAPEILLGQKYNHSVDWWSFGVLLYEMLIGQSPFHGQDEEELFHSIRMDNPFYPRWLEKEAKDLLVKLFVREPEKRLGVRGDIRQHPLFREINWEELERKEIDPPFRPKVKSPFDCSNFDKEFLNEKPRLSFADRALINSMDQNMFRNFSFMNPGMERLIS

Cc1cccc2c(C3=C(c4nc(N5CCNC6(CC6)C5)cc5ccccc45)C(=O)NC3=O)c[nH]c12 [Example 3, 3-[3-(4,7-diaza-spiro[2.5]oct-7-yl)-isoquinolin-1-yl]-4-(7-methyl-1H-indol-3-yl)-pyrrole-2,5-dione]
solubility ([1]; FaSSIF pH 6.5): 30 µg/mL (≈ 64.7 µM) | solubility ([1]; FeSSIF pH 5.8): 280 µg/mL (≈ 604 µM) | solubility ([1]; simulated gastric fluid, SGF pH 2): 120 µg/mL (≈ 259 µM) | concentration at 0.083 h ([2]; po, male Beagle dogs, example 1 3.0 mg/kg p.o. (crystalline monohydrate suspension), 0.083 h): 15 nM | concentration at 0.25 h ([2]; po, male Beagle dogs, example 1 3.0 mg/kg p.o., 0.25 h): 167 nM | concentration at 0.5 h ([2]; po, male Beagle dogs, example 1 3.0 mg/kg p.o., 0.5 h): 757 nM | concentration at 0.75 h ([2]; po, male Beagle dogs, example 1 3.0 mg/kg p.o., 0.75 h): 1200 nM | concentration at 1 h ([2]; po, male Beagle dogs, example 1 3.0 mg/kg p.o., 1 h): 1310 nM | concentration at 2 h ([2]; po, male Beagle dogs, example 1 3.0 mg/kg p.o., 2 h): 1120 nM | concentration at 3 h ([2]; po, male Beagle dogs, example 1 3.0 mg/kg p.o., 3 h): 959 nM | concentration at 4 h ([2]; po, male Beagle dogs, example 1 3.0 mg/kg p.o., 4 h): 762 nM | concentration at 7 h ([2]; po, male Beagle dogs, example 1 3.0 mg/kg p.o., 7 h): 403 nM | concentration at 24 h ([2]; po, male Beagle dogs, example 1 3.0 mg/kg p.o., 24 h): 67.9 nM | Tmax ([2]; male, Beagle, 3 mg/kg, mean ± SD (n=3), after oral dosing of example No. 1 to dogs): 54 ± 6 min | IC50 (PKC-theta): 0.2 nM | concentration at 0.5 h ([3]; po, fasted male Beagle dogs, example No. 3 mono acetate salt p.o. 100 mg/dog, 0.5 h): 936 nM | concentration at 1 h ([3]; po, fasted male Beagle dogs, example No. 3 mono acetate salt p.o. 100 mg/dog, 1 h): 2160 nM | concentration at 2 h ([3]; po, fasted male Beagle dogs, example No. 3 mono acetate salt p.o. 100 mg/dog, 2 h): 2550 nM | concentration at 3 h ([3]; po, fasted male Beagle dogs, example No. 3 mono acetate salt p.o. 100 mg/dog, 3 h): 2000 nM | concentration at 4 h ([3]; po, fasted male Beagle dogs, example No. 3 mono acetate salt p.o. 100 mg/dog, 4 h): 1900 nM | concentration at 6 h ([3]; po, fasted male Beagle dogs, example No. 3 mono acetate salt p.o. 100 mg/dog, 6 h): 1490 nM | concentration at 8 h ([3]; po, fasted male Beagle dogs, example No. 3 mono acetate salt p.o. 100 mg/dog, 8 h): 1240 nM | concentration at 24 h ([3]; po, fasted male Beagle dogs, example No. 3 mono acetate salt p.o. 100 mg/dog, 24 h): 276 nM | concentration at 32 h ([3]; po, fasted male Beagle dogs, example No. 3 mono acetate salt p.o. 100 mg/dog, 32 h): 116 nM | concentration at 0.25 h ([3]; po, fasted male Beagle dogs, example No. 3 mono acetate salt, capsule p.o. 100 mg/dog, 0.25 h): 177 nM | Tmax ([3]; male, Beagle, dog, 100 mg, range, after oral dosing of example No. 3 mono acetate salt to dogs): 30 to 120 min | Amount in Area % of compound example No. 3 ([4]; Acetate Salt, FaSSIF pH 6.5, 37° C., 0 hours): 100 Area % | Amount in Area % of compound example No. 3 ([4]; Acetate Salt, FaSSIF pH 6.5, 37° C., 1 hours): 98.6 Area % | Amount in Area % of compound example No. 3 ([4]; Acetate Salt, FaSSIF pH 6.5, 37° C., 2.5 hours): 98.7 Area % | Amount in Area % of compound example No. 3 ([4]; Acetate Salt, FaSSIF pH 6.5, 37° C., 4 hours): 95.1 Area % | Amount in Area % of compound example No. 3 ([4]; Acetate Salt, FaSSIF pH 6.5, 37° C., 7 hours): 88.5 Area % | Amount in Area % of compound example No. 3 ([4]; Acetate Salt, FeSSIF pH 5.8, 37° C., 0 hours): 100 Area % | Amount in Area % of compound example No. 3 ([4]; Acetate Salt, FeSSIF pH 5.8, 37° C., 1 hours): 99.1 Area % | Amount in Area % of compound example No. 3 ([4]; Acetate Salt, FeSSIF pH 5.8, 37° C., 2.5 hours): 98.9 Area % | Amount in Area % of compound example No. 3 ([4]; Acetate Salt, FeSSIF pH 5.8, 37° C., 4 hours): 98 Area % | Amount in Area % of compound example No. 3 ([4]; Acetate Salt, FeSSIF pH 5.8, 37° C., 7 hours): 97.5 Area % | Amount in Area % of compound example No. 3 ([4]; Acetate Salt, SGF pH 2, 37° C., 0 hours): 100 Area % | Amount in Area % of compound example No. 3 ([4]; Acetate Salt, SGF pH 2, 37° C., 1 hours): 96.4 Area % | Amount in Area % of compound example No. 3 ([4]; Acetate Salt, SGF pH 2, 37° C., 2.5 hours): 93.2 Area % | Amount in Area % of compound example No. 3 ([4]; Acetate Salt, SGF pH 2, 37° C., 4 hours): 92.4 Area % | Amount in Area % of compound example No. 3 ([4]; Acetate Salt, SGF pH 2, 37° C., 7 hours): 90.0 Area % | Amount in Area % of compound example No. 3 ([4]; Free Form, FaSSIF pH 6.5, 37° C., 0 hours): 100 Area % | Amount in Area % of compound example No. 3 ([4]; Free Form, FaSSIF pH 6.5, 37° C., 1 hours): 100 Area % | Amount in Area % of compound example No. 3 ([4]; Free Form, FaSSIF pH 6.5, 37° C., 2.5 hours): 100 Area % | Amount in Area % of compound example No. 3 ([4]; Free Form, FaSSIF pH 6.5, 37° C., 4 hours): 90.7 Area % | Amount in Area % of compound example No. 3 ([4]; Free Form, FaSSIF pH 6.5, 37° C., 7 hours): 82.5 Area % | Amount in Area % of compound example No. 3 ([4]; Free Form, FeSSIF pH 5.8, 37° C., 0 hours): 100 Area % | Amount in Area % of compound example No. 3 ([4]; Free Form, FeSSIF pH 5.8, 37° C., 1 hours): 100 Area % | Amount in Area % of compound example No. 3 ([4]; Free Form, FeSSIF pH 5.8, 37° C., 2.5 hours): 100 Area % | Amount in Area % of compound example No. 3 ([4]; Free Form, FeSSIF pH 5.8, 37° C., 4 hours): 99.2 Area % | Amount in Area % of compound example No. 3 ([4]; Free Form, FeSSIF pH 5.8, 37° C., 7 hours): 98.7 Area % | Amount in Area % of compound example No. 3 ([4]; Free Form, SGF pH 2, 37° C., 0 hours): 98.8 Area % | Amount in Area % of compound example No. 3 ([4]; Free Form, SGF pH 2, 37° C., 1 hours): 98.6 Area % | Amount in Area % of compound example No. 3 ([4]; Free Form, SGF pH 2, 37° C., 2.5 hours): 98.1 Area % | Amount in Area % of compound example No. 3 ([4]; Free Form, SGF pH 2, 37° C., 4 hours): 97.9 Area % | Amount in Area % of compound example No. 3 ([4]; Free Form, SGF pH 2, 37° C., 7 hours): 97.9 Area % | IC50 (PKC-alpha): 0.4 nM
